Patent US12662458B2, “Solid forms of a compound” (Denali Therapeutics Inc., priority 2020, dated 2026)
Entries after “also recorded” stand apart in the source; their conditions may differ.

Experiments:
[1] = system: ISR pathway (H4 ATF4-NLuc cell line); assay: ATF4 Nano Luciferase reporter integrated stress response (ISR) assay; assay type: cell-based; conditions: Homo sapiens; H4 ATF4-NLuc (clone 17) cells, 50 um sodium arsenite 6 hours, luminescence
Text: Cellular stress leads to activation of the integrated stress response pathway through one of four eukaryotic initiation factor 2α kinases and halts global translation, while allowing for the translation of select transcripts like ATF4 (activating transcription factor 4) that are important for the response to cellular stress. During normal conditions, small open reading frames (ORFs) in the 5′ UTR of ATF4 occupy the ribosome and prevent translation of the coding sequence of ATF4. During stress conditions however, the ribosome scans past these upstream ORFs and preferentially begins translation at the coding sequence of ATF4. In this way, the translation, and thus protein level of ATF4 is a readout of ISR pathway activation. Thus, a fusion of the uORFs and the beginning of the coding sequence of ATF to a common cellular reporter like nano-luciferase allows for a sensitive and high-throughput readout of ISR pathway activity.
Compound I, or any of its forms described herein, may be tested in the following assay. […] We utilized this cell line to generate an integrated stress response (ISR) assay to evaluate the activity of ISR pathway inhibitors via luminescence readout. […]

Vacuum drying of Form B = assay type: physicochemical; conditions: vacuum drying at room temperature
Procedure: A 1,4-dioxane solution of Form A was prepared by dissolving 20 mg in 0.2-1.0 mL of 1,4-dioxane until clear solution was obtained. Then, water was added while maintaining magnetic agitation until precipitate appeared. […] XRPD data was obtained on the wet-cake prior to drying.
Form B can only be prepared in a location where Form C has rigorously been excluded, otherwise the conditions to prepare Form B (described above) will instead produce Form C, the most thermodynamically stable form identified.

| Compound | IC50 [1] [nM] | form after vacuum drying (Vacuum drying of Form B) |
| --- | --- | --- |
| O=C(COc1ccc(Cl)cc1)NC12CC(c3nnc([C@H]4C[C@@H](OC(F)(F)F)C4)o3)(C1)C2 [Compound I, 2-(4-chlorophenoxy)-N-[3-[5-[cis-3-(trifluoromethoxy)cyclobutyl]-1,3,4-oxadiazol-2-yl]-1-bicyclo[1.1.1]pentanyl]acetamide] | < 1000 | – |
| O=C(COc1ccc(Cl)cc1)NC12CC(c3nnc([C@H]4C[C@@H](OC(F)(F)F)C4)o3)(C1)C2 [Form B, 2-(4-chlorophenoxy)-N-[3-[5-[cis-3-(trifluoromethoxy)cyclobutyl]-1,3,4-oxadiazol-2-yl]-1-bicyclo[1.1.1]pentanyl]acetamide] | – | converted to Form A; also recorded: desolvates to Form A |
